# Source: ChEMBL document CHEMBL1154040, “Synthesis and evaluation of novel F-18 labeled fluoroarylvaline derivatives: potential PET imaging agents for tumor detection” (Bioorg Med Chem Lett, 2009)
# Experiments:
# [1] = Ratio of drug level in S180 tumor to muscleKM mouse at 240 to 370 kBq, iv after 30 mins; type: ADME, organism-based, KM; conditions: in vivo, 0.5 h
# [2] = Ratio of drug level in S180 tumor to brain KM mouse at 240 to 370 kBq, iv after 5 mins; type: ADME, organism-based; conditions: in vivo
# [3] = Ratio of drug level in S180 tumor to blood in KM mouse at 240 to 370 kBq, iv after 5mins; type: ADME, organism-based; conditions: tumour
# [4] = test system: Blood; assay: Biodistribution in S180 tumor-bearing KM mouse blood assessed per gram of tissue weight at 240 to 370 kBq, iv after 5 mins; type: ADME, organism-based; conditions: in vivo
# [5] = test system: Brain; assay: Biodistribution in S180 tumor-bearing KM mouse brain assessed per gram of tissue at 240 to 370 kBq, iv after 30 mins; type: ADME, organism-based; conditions: in vivo, 0.5 h
# [6] = test system: Lung; assay: Biodistribution in S180 tumor-bearing KM mouse lung assessed per gram of tissue at 240 to 370 kBq, iv after 30 mins; type: ADME, organism-based; conditions: in vivo, 0.5 h
# [7] = Biodistribution in S180 tumor present in KM mouse assessed per gram of tissue at 240 to 370 kBq, iv after 5 mins; type: ADME, organism-based, Neoplasm; conditions: in vivo
# [8] = Ratio of drug level in S180 tumor to brain KM mouse at 240 to 370 kBq, iv after 30 mins; type: ADME, organism-based; conditions: in vivo, 0.5 h
# [9] = test system: Blood; assay: Biodistribution in S180 tumor-bearing KM mouse blood assessed per gram of tissue weight at 240 to 370 kBq, iv after 60 mins; type: ADME, organism-based; conditions: in vivo, 1 h
# [10] = test system: Brain; assay: Biodistribution in S180 tumor-bearing KM mouse brain assessed per gram of tissue at 240 to 370 kBq, iv after 60 mins; type: ADME, organism-based; conditions: in vivo, 1 h
# [11] = Ratio of drug level in S180 tumor to muscleKM mouse at 240 to 370 kBq, iv after 120 mins; type: ADME, organism-based, KM; conditions: in vivo, 2 h
# [12] = test system: Liver; assay: Biodistribution in S180 tumor-bearing KM mouse liver assessed per gram of tissue weight at 240 to 370 kBq, iv after 15 mins; type: ADME, organism-based; conditions: in vivo, 0.25 h
# [13] = Biodistribution in S180 tumor present in KM mouse assessed per gram of tissue at 240 to 370 kBq, iv after 15 mins; type: ADME, organism-based, Neoplasm; conditions: in vivo, 0.25 h
# [14] = test system: Liver; assay: Biodistribution in S180 tumor-bearing KM mouse liver assessed per gram of tissue weight at 240 to 370 kBq, iv after 5 mins; type: ADME, organism-based; conditions: in vivo
# [15] = test system: Kidney; assay: Biodistribution in S180 tumor-bearing KM mouse kidney assessed per gram of tissue at 240 to 370 kBq, iv after 60 mins; type: ADME, organism-based; conditions: in vivo, 1 h
# [16] = test system: Kidney; assay: Biodistribution in S180 tumor-bearing KM mouse kidney assessed per gram of tissue at 240 to 370 kBq, iv after 15 mins; type: ADME, organism-based; conditions: in vivo, 0.25 h
# [17] = test system: Spleen; assay: Biodistribution in S180 tumor-bearing KM mouse spleen assessed per gram of tissue at 240 to 370 kBq, iv after 5 mins; type: ADME, organism-based; conditions: in vivo
# [18] = Ratio of drug level in S180 tumor to brain KM mouse at 240 to 370 kBq, iv after 120 mins; type: ADME, organism-based; conditions: in vivo, 2 h
# [19] = test system: Heart; assay: Biodistribution in S180 tumor-bearing KM mouse heart assessed per gram of tissue weight at 240 to 370 kBq, iv after 5 mins; type: ADME, organism-based; conditions: in vivo
# [20] = Ratio of drug level in S180 tumor to muscleKM mouse at 240 to 370 kBq, iv after 15 mins; type: ADME, organism-based, KM; conditions: in vivo, 0.25 h
# [21] = Ratio of drug level in S180 tumor to brain KM mouse at 240 to 370 kBq, iv after 60 mins; type: ADME, organism-based; conditions: in vivo, 1 h
# [22] = test system: Muscle tissue; assay: Biodistribution in S180 tumor-bearing KM mouse muscle assessed per gram of tissue at 240 to 370 kBq, iv after 60 mins; type: ADME, organism-based; conditions: in vivo, 1 h
# [23] = test system: Spleen; assay: Biodistribution in S180 tumor-bearing KM mouse spleen assessed per gram of tissue at 240 to 370 kBq, iv after 30 mins; type: ADME, organism-based; conditions: in vivo, 0.5 h
# [24] = test system: Spleen; assay: Biodistribution in S180 tumor-bearing KM mouse spleen assessed per gram of tissue at 240 to 370 kBq, iv after 60 mins; type: ADME, organism-based; conditions: in vivo, 1 h
# [25] = test system: Liver; assay: Biodistribution in S180 tumor-bearing KM mouse liver assessed per gram of tissue at 240 to 370 kBq, iv after 30 mins; type: ADME, organism-based; conditions: in vivo, 0.5 h
# [26] = Biodistribution in S180 tumor present in KM mouse assessed per gram of tissue at 240 to 370 kBq, iv after 120 mins; type: ADME, organism-based, Neoplasm; conditions: in vivo, 2 h
# [27] = test system: Lung; assay: Biodistribution in S180 tumor-bearing KM mouse lung assessed per gram of tissue at 240 to 370 kBq, iv after 5 mins; type: ADME, organism-based; conditions: in vivo
# [28] = Ratio of drug level in S180 tumor to blood in KM mouse at 240 to 370 kBq, iv after 15mins; type: ADME, organism-based; conditions: tumour, 0.25 h
# [29] = test system: Liver; assay: Biodistribution in S180 tumor-bearing KM mouse liver assessed per gram of tissue at 240 to 370 kBq, iv after 120 mins; type: ADME, organism-based; conditions: in vivo, 2 h
# [30] = test system: Muscle tissue; assay: Biodistribution in S180 tumor-bearing KM mouse muscle assessed per gram of tissue at 240 to 370 kBq, iv after 5 mins; type: ADME, organism-based; conditions: in vivo
# [31] = test system: Kidney; assay: Biodistribution in S180 tumor-bearing KM mouse kidney assessed per gram of tissue at 240 to 370 kBq, iv after 120 mins; type: ADME, organism-based; conditions: in vivo, 2 h
# [32] = test system: Liver; assay: Biodistribution in S180 tumor-bearing KM mouse liver assessed per gram of tissue at 240 to 370 kBq, iv after 60 mins; type: ADME, organism-based; conditions: in vivo, 1 h
# [33] = test system: Heart; assay: Biodistribution in S180 tumor-bearing KM mouse heart assessed per gram of tissue weight at 240 to 370 kBq, iv after 15 mins; type: ADME, organism-based; conditions: in vivo, 0.25 h
# [34] = test system: Brain; assay: Biodistribution in S180 tumor-bearing KM mouse brain assessed per gram of tissue at 240 to 370 kBq, iv after 15 mins; type: ADME, organism-based; conditions: in vivo, 0.25 h
# [35] = Ratio of drug level in S180 tumor to muscleKM mouse at 240 to 370 kBq, iv after 60 mins; type: ADME, organism-based, KM; conditions: in vivo, 1 h
# [36] = test system: Heart; assay: Biodistribution in S180 tumor-bearing KM mouse heart assessed per gram of tissue weight at 240 to 370 kBq, iv after 30 mins; type: ADME, organism-based; conditions: in vivo, 0.5 h
# [37] = Biodistribution in S180 tumor present in KM mouse assessed per gram of tissue at 240 to 370 kBq, iv after 30 mins; type: ADME, organism-based, Neoplasm; conditions: in vivo, 0.5 h
# [38] = Ratio of drug level in S180 tumor to muscleKM mouse at 240 to 370 kBq, iv after 5 mins; type: ADME, organism-based, KM; conditions: in vivo
# [39] = Ratio of drug level in S180 tumor to blood in KM mouse at 240 to 370 kBq, iv after 60 mins; type: ADME, organism-based; conditions: tumour, 1 h
# [40] = Ratio of drug level in S180 tumor to blood in KM mouse at 240 to 370 kBq, iv after 120 mins; type: ADME, organism-based; conditions: tumour, 2 h
# [41] = test system: Lung; assay: Biodistribution in S180 tumor-bearing KM mouse lung assessed per gram of tissue at 240 to 370 kBq, iv after 120 mins; type: ADME, organism-based; conditions: in vivo, 2 h
# [42] = test system: Blood; assay: Biodistribution in S180 tumor-bearing KM mouse blood assessed per gram of tissue weight at 240 to 370 kBq, iv after 120 mins; type: ADME, organism-based; conditions: in vivo, 2 h
# [43] = Biodistribution in S180 tumor present in KM mouse assessed per gram of tissue at 240 to 370 kBq, iv after 60 mins; type: ADME, organism-based, Neoplasm; conditions: in vivo, 1 h
structure (smiles),measurement,setting,value
OC[C@H]1O[C@@H](O)[C@H]([18F])[C@@H](O)[C@@H]1O [FLUDEOXYGLUCOSE-F18],tumor/muscle ratio,[1],1.75
same,tumor/brain ratio,[2],0.53
same,tumor/blood ratio,[3],1.17
same,Drug uptake,[4],1.09 %ID
same,Drug uptake,[5],3.07 %ID
same,Drug uptake,[6],0.64 %ID
same,Drug uptake,[7],1.27 %ID
same,tumor/brain ratio,[8],0.61
same,Drug uptake,[9],0.11 %ID
same,Drug uptake,[10],2.11 %ID
same,tumor/muscle ratio,[11],2.2
same,Drug uptake,[12],0.47 %ID
same,Drug uptake,[13],1.56 %ID
same,Drug uptake,[14],1.35 %ID
same,Drug uptake,[15],0.54 %ID
same,Drug uptake,[16],1.04 %ID
same,Drug uptake,[17],1.31 %ID
same,tumor/brain ratio,[18],1.33
same,Drug uptake,[19],2.6 %ID
same,tumor/muscle ratio,[20],1.37
same,tumor/brain ratio,[21],1.02
same,Drug uptake,[22],0.97 %ID
same,Drug uptake,[23],0.9 %ID
same,Drug uptake,[24],0.83 %ID
same,Drug uptake,[25],0.23 %ID
same,Drug uptake,[26],1.7 %ID
same,Drug uptake,[27],1.52 %ID
same,tumor/blood ratio,[28],3.42
same,Drug uptake,[29],0.2 %ID
same,Drug uptake,[30],1.56 %ID
same,Drug uptake,[31],0.25 %ID
same,Drug uptake,[32],0.22 %ID
same,Drug uptake,[33],2.5 %ID
same,Drug uptake,[34],2.63 %ID
same,tumor/muscle ratio,[35],2.23
same,Drug uptake,[36],2.69 %ID
same,Drug uptake,[37],1.86 %ID
same,tumor/muscle ratio,[38],0.81
same,tumor/blood ratio,[39],19.5
same,tumor/blood ratio,[40],15.8
same,Drug uptake,[41],0.52 %ID
same,Drug uptake,[42],0.11 %ID
same,Drug uptake,[43],2.16 %ID
COC(=O)[C@@H](NC(=O)c1ccc([N+](=O)[O-])cc1[18F])C(C)C,tumor/muscle ratio,[1],2.41
same,tumor/brain ratio,[2],2.79
same,tumor/blood ratio,[3],0.9
same,Drug uptake,[4],3.09 %ID
same,Drug uptake,[5],0.28 %ID
same,Drug uptake,[6],1.31 %ID
same,Drug uptake,[7],2.78 %ID
same,tumor/brain ratio,[8],7.06
same,Drug uptake,[9],0.28 %ID
same,Drug uptake,[10],0.17 %ID
same,tumor/muscle ratio,[11],0.54
same,Drug uptake,[12],8.6 %ID
same,Drug uptake,[13],2.06 %ID
same,Drug uptake,[14],15.9 %ID
same,Drug uptake,[15],0.35 %ID
same,Drug uptake,[16],11.28 %ID
same,Drug uptake,[17],1.48 %ID
same,tumor/brain ratio,[18],2.61
same,Drug uptake,[19],1.35 %ID
same,tumor/muscle ratio,[20],1.48
same,tumor/brain ratio,[21],5.61
same,Drug uptake,[22],0.69 %ID
same,Drug uptake,[23],0.51 %ID
same,Drug uptake,[24],0.31 %ID
same,Drug uptake,[25],3.66 %ID
same,Drug uptake,[26],0.31 %ID
same,Drug uptake,[27],5.49 %ID
same,tumor/blood ratio,[28],0.94
same,Drug uptake,[29],0.14 %ID
same,Drug uptake,[30],1.43 %ID
same,Drug uptake,[31],0.29 %ID
same,Drug uptake,[32],0.27 %ID
same,Drug uptake,[33],0.6 %ID
same,Drug uptake,[34],0.6 %ID
same,tumor/muscle ratio,[35],1.39
same,Drug uptake,[36],0.4 %ID
same,Drug uptake,[37],1.97 %ID
same,tumor/muscle ratio,[38],1.94
same,tumor/blood ratio,[39],3.44
same,tumor/blood ratio,[40],1.67
same,Drug uptake,[41],0.25 %ID
same,Drug uptake,[42],0.19 %ID
same,Drug uptake,[43],0.95 %ID
